The structures appear in SMILES notation. Where only a bound is given, the exact number is not on record here.

The target in the test is T1, EBP (Homo sapiens, UniProt Q15125).
T1 construct: HEK293T cells were utilized as the source of EBP enzyme; endogenous in cells; host or cells: HEK293T
T1 sequence (Q15125 whole entry): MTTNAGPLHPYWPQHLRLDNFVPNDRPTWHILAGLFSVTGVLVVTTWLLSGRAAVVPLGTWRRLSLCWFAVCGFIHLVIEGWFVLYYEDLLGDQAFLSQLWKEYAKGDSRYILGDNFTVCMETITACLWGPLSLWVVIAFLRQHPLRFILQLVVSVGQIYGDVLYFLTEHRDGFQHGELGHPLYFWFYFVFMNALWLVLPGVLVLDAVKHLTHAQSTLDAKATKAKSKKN
Put plainly: EBP Functional Assay (EBP immunoaffinity LC-MS assay). The class given is biochemical. The settings on record: HEK293T cells as source of EBP enzyme; 30 min with inhibitor, then zymosterol-d5, 37° C. for 4 h; percent conversion by LC-APCI MRM MS. As for the experimental part: The EBP immunoaffinity (IA) LC-MS assay measures the potency of small molecule inhibitors of EBP by quantifying their concentration-dependent changes in the enzyme's substrate and product using liquid chromatography atmospheric pressure chemical ionization multiple reaction monitoring mass spectrometry (LC-APCI MRM MS). HEK293T cells were utilized as the source of EBP enzyme. The enzyme was incubated with the small molecule inhibitors at variable concentrations for 30 min. Deuterated form of EBP substrate, zymosterol-d5 (Avanti Polar Lipids, Cat #700068P-1 mg), was then added and the plate was incubated at 37° C. for 4 h. Finally, the sterol isomers were extracted and injected to LC-APCI MRM MS. MRM transition used for the quantification for both zymosterol and dihydrolathosterol (substrate and product of EBP enzymatic reaction, respectively) is 372.3-203.2, CE 30 and DP 80 in positive ion mode. Percent conversion of the zymosterol-d5 to dehydrolathosterol-d5 was used to derive IC50 curves. Tasin-1 (1′-[(4-Methoxyphenyl)sulfonyl]-4-methyl-1,4′-bipiperidine, CAS 792927-06-1) was used as the reference small molecule inhibitor. Percent conversion versus the compound concentration data were fit to the following 4-parameter logistic model to generate IC50 curves: […]
On to `O=S(=O)(c1ccc(OC(F)F)cc1)N1[C@@H]2CC[C@H]1C[C@H](NC[C@H]1C[C@@H](O)C1)C2` (single isomer, unassigned) [Example 63], for which the 50% inhibitory concentration (IC50) was 150 to 2000 nM.
As for `Cc1nonc1S(=O)(=O)N1[C@@H]2CC[C@H]1C[C@@H](N1CCC(C)CC1)C2` [Example 1, 3-Methyl-4-(((1R,3r,5S)-3-(4-methylpiperidin-1-yl)-8-azabicyclo[3.2.1]octan-8-yl)sulfonyl)-1,2,5-oxadiazole], the figure is less than 50 nM.
The compound `O=S(=O)(c1ccc(OC(F)F)cc1)N1[C@@H]2CC[C@H]1C[C@@H](NCC1(F)COC1)C2` (single isomer, unassigned) [Example 71] displayed an IC50 of 150 to 2000 nM.
The result for `O=S(=O)(c1ccc(OC(F)F)cc1)N1C2CCC1CC(NC1CCC1O)C2` (stereo not drawn) [Example 14, 2-((8-((4-(Difluoromethoxy)phenyl)sulfonyl)-8-azabicyclo[3.2.1]octan-3-yl)amino)cyclobutan-1-ol] reads less than 50 nM; that for `Cc1ccc(S(=O)(=O)N2[C@@H]3CC[C@H]2C[C@H](N2CCC(C)CC2)C3)c(C)n1` [Example 47, (1R,3s,5S)-8-((2,6-Dimethylpyridin-3-yl)sulfonyl)-3-(4-methylpiperidin-1-yl)-8-azabicyclo[3.2.1]octane], 50 to 150 nM; that for `O=S(=O)(c1ccc(OC(F)F)cc1)N1C2CCC1CC(NCC1CC(O)C1)C2` (single isomer, unassigned) [Example 62], 50 to 150 nM.
As to `COCn1ncc(Cl)c1S(=O)(=O)N1[C@@H]2CC[C@H]1C[C@H](N1CCC(C)CC1)C2` [Example 4, (1R,3s,5S)-8-((4-Chloro-1-(methoxymethyl)-1H-pyrazol-5-yl)sulfonyl)-3-(4-methylpiperidin-1-yl)-8-azabicyclo[3.2.1]octane], the IC50 was less than 50 nM.
As for `Cc1nc(C(F)(F)F)ccc1S(=O)(=O)N1[C@@H]2CC[C@H]1C[C@H](NC1CCOCC1)C2` [Example 75, (1R,3s,5S)-8-((2-Methyl-6-(trifluoromethyl)pyridin-3-yl)sulfonyl)-N-(tetrahydro-2H-pyran-4-yl)-8-azabicyclo[3.2.1]octan-3-amine], the figure is 150 to 2000 nM; as for `CC(O)CNC1CC2CCC(C1)N2S(=O)(=O)c1ccc(OC(F)F)cc1` (stereo not drawn) [Example 48, 1-((8-((4-(Difluoromethoxy)phenyl)sulfonyl)-8-azabicyclo[3.2.1]octan-3-yl)amino)propan-2-ol], 150 to 2000 nM.
The result for `COc1nc(C)ccc1S(=O)(=O)N1[C@@H]2CC[C@H]1C[C@H](N1CCC(C)CC1)C2` [Example 3, (1R,3s,5S)-8-((2-Methoxy-6-methylpyridin-3-yl)sulfonyl)-3-(4-methylpiperidin-1-yl)-8-azabicyclo[3.2.1]octane] reads less than 50 nM; that for `O=S(=O)(c1ccc(OC(F)F)cc1)N1[C@@H]2CC[C@H]1C[C@H](NCC1(O)CCOCC1)C2` [Example 18, 4-((((1R,3s,5S)-8-((4-(Difluoromethoxy)phenyl)sulfonyl)-8-azabicyclo[3.2.1]octan-3-yl)amino)methyl)tetrahydro-2H-pyran-4-ol], less than 50 nM; that for `CC12CC(NC3CC4CCC(C3)N4S(=O)(=O)c3ccc(OC(F)F)cc3)(CO1)C2` (stereo not drawn) [Example 30, 8-((4-(Difluoromethoxy)phenyl)sulfonyl)-N-(1-methyl-2-oxabicyclo[2.1.1]hexan-4-yl)-8-azabicyclo[3.2.1]octan-3-amine], less than 50 nM.
As for `O=S(=O)(c1ccc(OC(F)F)cc1)N1C2CCC1CC(NCC1CCOCC1)C2` (stereo not drawn) [Example 19, 8-((4-(Difluoromethoxy)phenyl)sulfonyl)-N-((tetrahydro-2H-pyran-4-yl)methyl)-8-azabicyclo[3.2.1]octan-3-amine], the figure is less than 50 nM.
For the compound `O=S(=O)(c1ccc(OC(F)F)cc1)N1[C@@H]2CC[C@H]1C[C@@H](NC[C@H]1C[C@@H](O)C1)C2` (single isomer, unassigned) [Example 64], the IC50 was 50 to 150 nM.
As for `Cc1ccnc(-n2cc(S(=O)(=O)N3[C@@H]4CC[C@H]3C[C@H](N3CCC(C)CC3)C4)cn2)c1` [Example 41, (1R,3s,5S)-3-(4-Methylpiperidin-1-yl)-8-((1-(4-methylpyridin-2-yl)-1H-pyrazol-4-yl)sulfonyl)-8-azabicyclo[3.2.1]octane], the figure is less than 50 nM; as for `CC(C)(O)CN[C@@H]1C[C@H]2CC[C@@H](C1)N2S(=O)(=O)c1ccc(OC(F)F)cc1` [Example 76, 1-(((1R,3s,5S)-8-((4-(Difluoromethoxy)phenyl)sulfonyl)-8-azabicyclo[3.2.1]octan-3-yl)amino)-2-methylpropan-2-ol], 150 to 2000 nM; as for `Cc1nc(C(F)(F)F)ccc1S(=O)(=O)N1[C@@H]2CC[C@H]1C[C@@H](NC1CC3(COC3)C1)C2` (single isomer, unassigned) [Example 69], 50 to 150 nM.
As to `CC1CCN([C@@H]2C[C@H]3CC[C@@H](C2)N3S(=O)(=O)c2ccc3c(c2)CC(C)(C)C(=O)N3)CC1` [Example 5, 3,3-Dimethyl-6-(((1R,3s,5S)-3-(4-methylpiperidin-1-yl)-8-azabicyclo[3.2.1]octan-8-yl)sulfonyl)-3,4-dihydroquinolin-2(1H)-one], the 50% inhibitory concentration (IC50) was less than 50 nM.
`O=S(=O)(c1ccc(OC(F)F)cc1)N1[C@@H]2CC[C@H]1C[C@H](NCC1COC1)C2` [Example 31, (1R,3s,5S)-8-((4-(Difluoromethoxy)phenyl)sulfonyl)-N-(oxetan-3-ylmethyl)-8-azabicyclo[3.2.1]octan-3-amine] yielded an IC50 of less than 50 nM.
In turn, `COCCC(C)NC1CC2CCC(C1)N2S(=O)(=O)c1ccc(OC(F)F)cc1` (stereo not drawn) [Example 52, 8-((4-(Difluoromethoxy)phenyl)sulfonyl)-N-(4-methoxybutan-2-yl)-8-azabicyclo[3.2.1]octan-3-amine] gave an IC50 of less than 50 nM.
Turning to `O=S(=O)(c1ccc(OC(F)F)cc1)N1[C@@H]2CC[C@H]1C[C@@H](NCC1(O)CCOCC1)C2` [Example 17, 4-((((1R,3r,5S)-8-((4-(Difluoromethoxy)phenyl)sulfonyl)-8-azabicyclo[3.2.1]octan-3-yl)amino)methyl)tetrahydro-2H-pyran-4-ol], the IC50 is less than 50 nM.
Regarding `O=S(=O)(c1ccc(OC(F)F)cc1)N1C2CCC1CC(NCC1CC(O)C1)C2` (single isomer, unassigned) [Example 61], the IC50 fell in the range of 50 to 150 nM.
As for `Cc1nc(C(F)(F)F)ccc1S(=O)(=O)N1[C@@H]2CC[C@H]1C[C@H](N1CC3(COC3)C1)C2` (single isomer, unassigned) [Example 22], the figure is less than 50 nM.
`CCn1nccc1S(=O)(=O)N1[C@@H]2CC[C@H]1C[C@H](N1CCC(C)CC1)C2` [Example 13, (1R,3s,5S)-8-((1-Ethyl-1H-pyrazol-5-yl)sulfonyl)-3-(4-methylpiperidin-1-yl)-8-azabicyclo[3.2.1]octane] returned an IC50 of less than 50 nM.
The result for `CN(C1CCOCC1)[C@H]1C[C@H]2CC[C@@H](C1)N2S(=O)(=O)c1ccc(OC(F)F)cc1` [Example 65, (1R,3r,5S)-8-((4-(difluoromethoxy)phenyl)sulfonyl)-N-methyl-N-(tetrahydro-2H-pyran-4-yl)-8-azabicyclo[3.2.1]octan-3-amine] reads less than 50 nM; that for `O=S(=O)(c1ccc(OC(F)F)cc1)N1C2CCC1CC(NC1CCOCC1)C2` (stereo not drawn) [Example 73, 8-((4-(Difluoromethoxy)phenyl)sulfonyl)-N-(tetrahydro-2H-pyran-4-yl)-8-azabicyclo[3.2.1]octan-3-amine], less than 50 nM; that for `COc1cc(F)c(S(=O)(=O)N2[C@@H]3CC[C@H]2C[C@H](N2CCC(C)CC2)C3)c(F)c1` [Example 43, (1R,3s,5S)-8-((2,6-Difluoro-4-methoxyphenyl)sulfonyl)-3-(4-methylpiperidin-1-yl)-8-azabicyclo[3.2.1]octane], 50 to 150 nM.
The result for `O=S(=O)(c1ccc(OC(F)F)cc1)N1C2CCC1CC(NC1COC1)C2` (stereo not drawn) [Example 74, 8-((4-(Difluoromethoxy)phenyl)sulfonyl)-N-(oxetan-3-yl)-8-azabicyclo[3.2.1]octan-3-amine] reads greater than 2000 nM.
`Cc1nc(C(F)(F)F)ccc1S(=O)(=O)N1[C@@H]2CC[C@H]1C[C@@H](N1CC3(COC3)C1)C2` (single isomer, unassigned) [Example 23]: the IC50 was less than 50 nM.
Compound `CC1CCN([C@@H]2C[C@H]3CC[C@@H](C2)N3S(=O)(=O)c2cn(-c3ccccc3)nn2)CC1` [Example 44, (1R,3s,5S)-3-(4-Methylpiperidin-1-yl)-8-((1-phenyl-1H-1,2,3-triazol-4-yl)sulfonyl)-8-azabicyclo[3.2.1]octane] came in with an IC50 of 150 to 2000 nM.
As for `O=S(=O)(c1ccc(OC(F)F)cc1)N1C2CCC1CC(N1CC3CCC(C3)C1)C2` (stereo not drawn) [Example 58, 8′-((4-(Difluoromethoxy)phenyl)sulfonyl)-3,8′-diaza-3,3′-bi(bicyclo[3.2.1]octane)], the figure is less than 50 nM; as for `O=S(=O)(c1ccc(OC(F)F)cc1)N1C2CCC1CC(N1CC3CC(C3)C1)C2` (stereo not drawn) [Example 57, 3-(8-((4-(Difluoromethoxy)phenyl)sulfonyl)-8-azabicyclo[3.2.1]octan-3-yl)-3-azabicyclo[3.1.1]heptane], 50 to 150 nM.
In turn, `COCc1ccc(S(=O)(=O)N2[C@@H]3CC[C@H]2C[C@H](N2CCC(C)CC2)C3)o1` [Example 8, (1R,3s,5S)-8-((5-(Methoxymethyl)furan-2-yl)sulfonyl)-3-(4-methylpiperidin-1-yl)-8-azabicyclo[3.2.1]octane] yielded an IC50 of less than 50 nM.

As usually defined, the IC50 is the point on the concentration scale where inhibition reaches its midpoint.

Source of the values: patent US20250161281A1, “EMOPAMIL-BINDING PROTEIN INHIBITORS AND USES THEREOF” (BIOGEN MA INC., priority 2022, published 2025).
